From patent US20090215778A1, “Alpha-substituted Arylmethyl Piperazine Pyrazolo [1,5-alpha]Pyrimidine Amide Derivatives” (priority 2007, published 2009) come the findings set out here.

Each structure is given as a SMILES string.

For one experiment, the system named is HIV-1, NL4-3 strain. The experiment can be described thus: Virus infection assay (virus entry and single-cycle infection). The class given is cell-based. To be noted: Human immunodeficiency virus 1, NL43, TZM-b1, read-out: Nl4. The essentials:
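TZM-b1 cells (CD4, CXCR4, CCR5; LTR-driven lacZ/luciferase reporters) were infected with HIV-1 NL4-3 (MOI 0.01) with 80 μg/mL DEAE-dextran in the presence of test compound, 4 h at 37 °C before adding complete medium. Infection was quantified one day post-infection as chemiluminescent β-galactosidase signal.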

The target of experiment [1] is T1, HIV Env six-helix bundle (6HB) structure (Human immunodeficiency virus type 1 group M subtype B, UniProt P04579).
T1 construct: H9 cells chronically infected with HIV-1 (H9/HIV-1RF); endogenous in cells; host or cells: H9 cells chronically infected with HIV-1 strain RF (Env is made from the virus in the infected cells, not by transfection)
T1 sequence (P04579 32-519): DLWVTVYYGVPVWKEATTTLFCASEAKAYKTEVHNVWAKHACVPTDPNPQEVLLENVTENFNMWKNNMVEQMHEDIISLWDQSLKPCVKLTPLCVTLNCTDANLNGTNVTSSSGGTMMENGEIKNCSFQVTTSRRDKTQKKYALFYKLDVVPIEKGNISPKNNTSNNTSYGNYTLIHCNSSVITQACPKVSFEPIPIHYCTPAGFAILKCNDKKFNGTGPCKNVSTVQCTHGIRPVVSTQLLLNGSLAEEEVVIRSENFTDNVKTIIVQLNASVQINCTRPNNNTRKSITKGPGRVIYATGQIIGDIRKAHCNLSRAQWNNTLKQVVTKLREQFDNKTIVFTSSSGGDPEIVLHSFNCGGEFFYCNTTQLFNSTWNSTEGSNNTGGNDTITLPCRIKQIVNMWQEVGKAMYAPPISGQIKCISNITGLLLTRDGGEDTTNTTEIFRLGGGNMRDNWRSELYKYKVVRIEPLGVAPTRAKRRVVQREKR
T1 sequence (P04579 520-865): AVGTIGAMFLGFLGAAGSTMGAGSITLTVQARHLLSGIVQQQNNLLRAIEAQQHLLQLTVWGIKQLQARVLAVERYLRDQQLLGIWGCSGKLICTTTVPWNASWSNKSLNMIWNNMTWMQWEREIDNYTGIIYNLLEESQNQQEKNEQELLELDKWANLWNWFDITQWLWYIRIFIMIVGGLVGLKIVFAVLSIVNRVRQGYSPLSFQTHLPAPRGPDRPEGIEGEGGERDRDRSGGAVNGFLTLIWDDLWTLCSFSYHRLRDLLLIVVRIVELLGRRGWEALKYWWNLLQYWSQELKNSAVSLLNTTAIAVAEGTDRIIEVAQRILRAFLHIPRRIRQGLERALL
The experiment can be described thus: Six-helix bundle (6HB) assay. It counts as cell-based, HIV-1 (strain RF). In short, it runs like this:
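Chronically HIV-1 RF-infected H9 cells (12-40 days post-infection), 2.5×10^5 per well, were preincubated with compound for 30 min at 37 °C. sCD4 at 1 μg/mL was added for 1 h to trigger Env changes. 6HB-specific rabbit serum (1 h, 37 °C) was then added, followed by PE anti-rabbit (45 min, 4 °C), with flow cytometric fluorescence read-out.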

Regarding `COc1ccc(-c2nc3c(C(=O)N4CCN([C@@H](C)c5cccc(NC(C)=O)c5)C[C@H]4C)cnn3c(C(F)(F)F)c2C)cc1` [acetamide, N-[3-[(1S)-1-[(3R)-4-[[5-(4-methoxyphenyl)-6-methyl-7-(trifluoromethyl)pyrazolo[1,5-α]pyrimidin-3-yl]carbonyl]-3-methyl-1-piperazinyl]ethyl]phenyl]-], the IC50 in the experiment on HIV-1, NL4-3 strain was below 1 µM; in experiment [1] it was below 1 µM.

Take `COc1ccc(-c2nc3c(C(=O)N4CCN([C@@H](CO)c5ccccc5OC)C[C@H]4C)cnn3c(C(F)(F)F)c2C)cc1` [methanone, [(2R)-4-[(1R)-2-hydroxy-1-(2-methoxyphenyl)ethyl]-2-methyl-1-piperazinyl][5-(4-methoxyphenyl)-6-methyl-7-(trifluoromethyl)pyrazolo[1,5-α]pyrimidin-3-yl]-]: the IC50 in the experiment on HIV-1, NL4-3 strain is below 1 µM; in experiment [1], below 1 µM.

Consider `COc1ccc(-c2nc3c(C(=O)N4CCN([C@@H](CO)c5ccccc5)C[C@H]4C)cnn3c(C(F)(F)F)c2F)cc1` [methanone, [6-fluoro-5-(4-methoxyphenyl)-7-(trifluoromethyl)pyrazolo[1,5-α]pyrimidin-3-yl][(2R)-4-[(1R)-2-hydroxy-1-phenylethyl]-2-methyl-1-piperazinyl]-], for which the IC50 with HIV-1, NL4-3 strain was below 1 µM; in experiment [1], below 1 µM.

For `COc1ccc(-c2nc3c(C(=O)N4CCN(C(CO)c5cccc(F)c5F)C[C@H]4C)cnn3c(C(F)(F)F)c2C)cc1` (stereo partly drawn) [methanone, [(2R)-4-[1-(2,3-difluorophenyl)-2-hydroxyethyl]-2-methyl-1-piperazinyl][5-(4-methoxyphenyl)-6-methyl-7-(trifluoromethyl)pyrazolo[1,5-α]pyrimidin-3-yl]-], the IC50 is below 1 µM in the experiment with HIV-1, NL4-3 strain and below 1 µM in experiment [1].

`COc1ccc(-c2nc3c(C(=O)N4CCN(C(CNC(C)=O)c5ccccc5)C[C@H]4C)cnn3c(C(F)(F)F)c2C)cc1` (stereo partly drawn) [acetamide, N-[2-[(3R)-4-[[5-(4-methoxyphenyl)-6-methyl-7-(trifluoromethyl)pyrazolo[1,5-α]pyrimidin-3-yl]carbonyl]-3-methyl-1-piperazinyl]-2-phenylethyl]-]: the IC50 in the experiment with HIV-1, NL4-3 strain was below 1 µM; in experiment [1], below 1 µM.

In the case of `COc1ccc(-c2nc3c(C(=O)N4CCN([C@@H](C)c5cc(F)cc(F)c5F)C[C@H]4C)cnn3c(C(F)(F)F)c2C)cc1` [methanone, [5-(4-methoxyphenyl)-6-methyl-7-(trifluoromethyl)pyrazolo[1,5-α]pyrimidin-3-yl][(2R)-2-methyl-4-[(1S)-1-(2,3,5-trifluorophenyl)ethyl]-1-piperazinyl]-], the IC50 in the experiment on HIV-1, NL4-3 strain is below 1 µM; in experiment [1], below 1 µM.

Regarding `COc1ccc(-c2nc3c(C(=O)N4CCN(C(CN(C)C)c5ccccc5)C[C@H]4C)cnn3c(C(F)(F)F)c2C)cc1` (stereo partly drawn) [methanone, [(2R)-4-[2-(dimethylamino)-1-phenylethyl]-2-methyl-1-piperazinyl][5-(4-methoxyphenyl)-6-methyl-7-(trifluoromethyl)pyrazolo[1,5-α]pyrimidin-3-yl]-], the IC50 in the experiment with HIV-1, NL4-3 strain is below 1 µM; in experiment [1], below 1 µM.

As for `COc1ccc(-c2nc3c(C(=O)N4CCN(C(CO)c5ccco5)C[C@H]4C)cnn3c(C(F)(F)F)c2C)cc1` (stereo partly drawn) [methanone, [(2R)-4-[1-(2-furanyl)-2-hydroxyethyl]-2-methyl-1-piperazinyl][5-(4-methoxyphenyl)-6-methyl-7-(trifluoromethyl)pyrazolo[1,5-α]pyrimidin-3-yl]-], the IC50 with HIV-1, NL4-3 strain was below 1 µM; in experiment [1] it was below 1 µM.

Take `COc1ccc(-c2nc3c(C(=O)N4CCN(C(CNS(C)(=O)=O)c5ccccc5)C[C@H]4C)cnn3c(C(F)(F)F)c2C)cc1` (stereo partly drawn) [methanesulfonamide, N-[2-[(3R)-4-[[5-(4-methoxyphenyl)-6-methyl-7-(trifluoromethyl)pyrazolo[1,5-α]pyrimidin-3-yl]carbonyl]-3-methyl-1-piperazinyl]-2-phenylethyl]-, 2,2,2-trifluoroacetate]: the IC50 in the experiment on HIV-1, NL4-3 strain was below 1 µM; in experiment [1] it was below 1 µM.

Turning to `COc1ccc(-c2nc3c(C(=O)N4CCN(C(CO)c5ccccc5NC(C)=O)C[C@H]4C)cnn3c(C(F)(F)F)c2C)cc1` (stereo partly drawn) [acetamide, N-[2-[2-hydroxy-1-[(3R)-4-[[5-(4-methoxyphenyl)-6-methyl-7-(trifluoromethyl)pyrazolo[1,5-α]pyrimidin-3-yl]carbonyl]-3-methyl-1-piperazinyl]ethyl]phenyl]-], the IC50 with HIV-1, NL4-3 strain was above 10.1 µM; in experiment [1] it was above 10.1 µM.

As to `COc1ccc(-c2nc3c(C(=O)N4CCN(C(CO)c5cn[nH]c5)C[C@H]4C)cnn3c(C(F)(F)F)c2C)cc1` (stereo partly drawn) [methanone, [(2R)-4-[2-hydroxy-1-(1H-pyrazol-4-yl)ethyl]-2-methyl-1-piperazinyl][5-(4-methoxyphenyl)-6-methyl-7-(trifluoromethyl)pyrazolo[1,5-α]pyrimidin-3-yl]-], the IC50 fell in the range of 1.1 to 10 µM with HIV-1, NL4-3 strain and 1.1 to 10 µM in experiment [1].

`COc1ccc(-c2nc3c(C(=O)N4CCN([C@@H](C)c5oc(C)nc5C)C[C@H]4C)cnn3c(C(F)(F)F)c2C)cc1` [methanone, [(2R)-4-[(1S)-1-(2,4-dimethyl-5-oxazolyl)ethyl]-2-methyl-1-piperazinyl][5-(4-methoxyphenyl)-6-methyl-7-(trifluoromethyl)pyrazolo[1,5-α]pyrimidin-3-yl]-]: the IC50 with HIV-1, NL4-3 strain fell in the range of 1.1 to 10 µM; in experiment [1] it was 1.1 to 10 µM.

For `COc1ccc(-c2nc3c(C(=O)N4CCN([C@H](CO)c5ccc(C(C)=O)s5)C[C@H]4C)cnn3c(C(F)(F)F)c2C)cc1` [ethanone, 1-[5-[(1R)-2-hydroxy-1-[(3R)-4-[[5-(4-methoxyphenyl)-6-methyl-7-(trifluoromethyl)pyrazolo[1,5-α]pyrimidin-3-yl]carbonyl]-3-methyl-1-piperazinyl]ethyl]-2-thienyl]-], the IC50 in the experiment with HIV-1, NL4-3 strain was 1.1 to 10 µM; in experiment [1] it was below 1 µM.

In the case of `COc1ccc(-c2nc3c(C(=O)N4CCN(C(CO)c5cccs5)C[C@H]4C)cnn3c(C(F)(F)F)c2C)cc1` (stereo partly drawn) [methanone, [(2R)-4-[2-hydroxy-1-(2-thienyl)ethyl]-2-methyl-1-piperazinyl][5-(4-methoxyphenyl)-6-methyl-7-(trifluoromethyl)pyrazolo[1,5-α]pyrimidin-3-yl]-], the IC50 with HIV-1, NL4-3 strain is below 1 µM; in experiment [1], below 1 µM.

Regarding `COc1ccc(-c2nc3c(C(=O)N4CCN([C@@H](C)c5ccco5)C[C@H]4C)cnn3c(C(F)(F)F)c2C)cc1` [methanone, [(2R)-4-[(1S)-1-(2-furanyl)ethyl]-2-methyl-1-piperazinyl][5-(4-methoxyphenyl)-6-methyl-7-(trifluoromethyl)pyrazolo[1,5-α]pyrimidin-3-yl]-], the IC50 is below 1 µM in the experiment with HIV-1, NL4-3 strain and below 1 µM in experiment [1].

In the case of `COc1ccc(-c2nc3c(C(=O)N4CCN(C(CO)c5ccc(Cl)nc5)C[C@H]4C)cnn3c(C(F)(F)F)c2C)cc1` (stereo partly shown), the IC50 in the experiment on HIV-1, NL4-3 strain is below 1 µM; in experiment [1], below 1 µM.

Regarding `CCOc1ncccc1C(CO)N1CCN(C(=O)c2cnn3c(C(F)(F)F)c(C)c(-c4ccc(OC)cc4)nc23)[C@H](C)C1` (stereo partly drawn) [methanone, [(2R)-4-[1-(2-ethoxy-3-pyridinyl)-2-hydroxyethyl]-2-methyl-1-piperazinyl][5-(4-methoxyphenyl)-6-methyl-7-(trifluoromethyl)pyrazolo[1,5-α]pyrimidin-3-yl]-], the IC50 in the experiment with HIV-1, NL4-3 strain is below 1 µM; in experiment [1], below 1 µM.
